The results in this text go back to patent US11147815B2, “Compositions and methods for treating diseases associated with uncontrolled inflammatory responses” (SF17 THERAPEUTICS, INC., priority 2018, dated 2021).

One assay has as its target T1, TRIM8 (Homo sapiens, UniProt Q9BZR9).
T1 construct: 20,000 THP-1 cells; endogenous in cells; host or cells: THP-1
T1 sequence (Q9BZR9 1-551): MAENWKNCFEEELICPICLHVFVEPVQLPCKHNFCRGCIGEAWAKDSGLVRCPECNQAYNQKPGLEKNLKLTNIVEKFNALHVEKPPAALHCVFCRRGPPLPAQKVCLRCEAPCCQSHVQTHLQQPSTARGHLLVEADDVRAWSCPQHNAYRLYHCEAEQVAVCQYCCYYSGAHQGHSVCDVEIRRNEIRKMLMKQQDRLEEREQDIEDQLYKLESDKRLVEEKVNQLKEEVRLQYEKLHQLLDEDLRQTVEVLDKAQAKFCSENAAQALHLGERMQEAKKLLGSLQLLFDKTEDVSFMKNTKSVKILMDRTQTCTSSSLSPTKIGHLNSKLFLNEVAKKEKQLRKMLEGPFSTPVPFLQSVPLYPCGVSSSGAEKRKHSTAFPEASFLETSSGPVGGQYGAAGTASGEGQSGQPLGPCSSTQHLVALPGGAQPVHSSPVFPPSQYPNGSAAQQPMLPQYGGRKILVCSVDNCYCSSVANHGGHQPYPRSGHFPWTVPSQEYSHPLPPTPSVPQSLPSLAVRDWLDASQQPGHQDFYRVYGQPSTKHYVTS
The assay can be described thus: Cell-based screen for TRIM8 inhibition: CXCL9, CXCL10 and CXCL11 accumulation in IFN-γ-stimulated THP-1 cells. The following applies: for Normalized Average of IP-10/CXCL10 / Normalized Average of MIG/CXCL9 / Normalized Average of I-TAC/CXCL11 / Effect on inflammatory response (CXCL9, CXCL10, CXCL11 after IFN-γ): THP-1 cells; for Normalized Average of IP-10/CXCL10 / Normalized Average of MIG/CXCL9 / Normalized Average of I-TAC/CXCL11: 10 µM compound 4 hours, then 200 U human IFN-γ, 12 hours, flow cytometer; for Normalized Average of IP-10/CXCL10 / Normalized Average of MIG/CXCL9: degree of change from control (<1 inhibition, >1 enhancement), triplicate; for Normalized Average of I-TAC/CXCL11: degree of change from control, high background in read-out; for Effect on inflammatory response (CXCL9, CXCL10, CXCL11 after IFN-γ) / TRIM8 inhibitor or enhancer activity found on testing: summary in words; for TRIM8 inhibitor or enhancer activity found on testing: Example 4. As for the experimental part: (§1) A library of small molecule compounds comprising an E2-RING domain or a RING-RING domain was screen for TRIM8 inhibition in a cell-based assay. 20,000 THP-1 cells (a human myeloid cell line which imitates human monocyte cell inflammatory behavior and responds to IFN-γ stimulation by expressing […] CXCL9, CXCL10 and CXCL11) were incubated with […] of each compound (dissolved in DMSO) for 4 hours, then stimulated with 200 U (units) of human IFN-γ. The effect of the stimulation as measured by changes in accumulation levels of the cytokines CXCL9, CXCL10 and CXCL11 in extracellular fluid was determined by flow cytometer after 12 hours and compared to control (IFN-γ stimulation with no compound).
Each compound is identified by its ChemDiv catalog number.
Values in Table 1 are reported as degree of change from the control state. Values less than 1 indicate inhibition of cytokine response, and values greater than 1 indicate enhancement of cytokine response. Smaller values indicate a higher degree of inhibition. Values closer to zero indicate profound inhibition of cytokine response, and thus significant suppression of inflammatory responses conferred via inhibition of TRIM8 by the tested compounds. CXCL11 values are higher due to a high background in their read-out (relatively high CXCL11 values indicate […]). Standard errors reflect the degree of variation seen in the triplicate tests for each compound.
On the technique in general: A flow cytometer gives signals particle by particle.

A further assay concerns THP-1 cells. The assay can be described thus: Cell count in the THP-1 screening assay. It is filed as cell-based, human. The following applies: 10 µM compound, IFN-γ stimulation, normalized to control. As for the experimental part:
as §1

On to `COc1ccc(N2CCN(C(=O)c3cc4ccc5cccnc5c4[nH]3)CC2)cc1` [Compound 81, 1-(4-methoxyphenyl)-4-{1H-pyrrolo[3,2-h]quinoline-2-carbonyl}piperazine], for which, at TRIM8, the “Normalized Average of IP-10/CXCL10” value stood at 0.334; the “Normalized Average of MIG/CXCL9” value is recorded as 0.138; the “Normalized Average of I-TAC/CXCL11” value worked out at 0.617; the “Effect on inflammatory response (CXCL9, CXCL10, CXCL11 after IFN-γ)” value (from here on “Effect on inflammatory response”) is recorded as “significant inhibition of inflammatory response”. Further, the “TRIM8 inhibitor or enhancer activity found on testing” value on TRIM8 was “strong inhibitor of TRIM8”. For the same compound, the “Average Normalized Cell Count” value in the assay on THP-1 cells came out at 1.070.

`CCc1cccc2c(C(CC(=O)N3CCN(c4ccc([N+](=O)[O-])cc4)CC3)c3cccc4c3OCO4)c[nH]c12` (stereo not drawn) [Compound 130, 3-(2H-1,3-benzodioxol-4-yl)-3-(7-ethyl-1H-indol-3-yl)-1-[4-(4-nitrophenyl)piperazin-1-yl]propan-1-one]: at TRIM8, the “Normalized Average of IP-10/CXCL10” value is 0.794; the “Normalized Average of MIG/CXCL9” value came out at 7.574; the “Normalized Average of I-TAC/CXCL11” value came to 0.806; the “Effect on inflammatory response” value is on record as “significant enhancement of inflammatory response”. Further, the “TRIM8 inhibitor or enhancer activity found on testing” value at TRIM8 is recorded as “potent TRIM8 enhancer”. Also, the “Average Normalized Cell Count” value in the assay on THP-1 cells is reported as 1.135.

For `COc1ccc(Sc2ccc(=O)n(-c3ccc(C(=O)NCCCc4ccccc4)cc3)n2)cc1` [Compound 88, 4-{3-[(4-methoxyphenyl)sulfanyl]-6-oxo-1,6-dihydropyridazin-1-yl}-N-(3-phenylpropyl)benzamide], on TRIM8, the “Normalized Average of IP-10/CXCL10” value stood at 0.127; the “Normalized Average of MIG/CXCL9” value is given as 0.019; the “Normalized Average of I-TAC/CXCL11” value was determined as 0.744; the “Effect on inflammatory response” value is listed as “significant inhibition of inflammatory response”. The “TRIM8 inhibitor or enhancer activity found on testing” value on TRIM8 is listed as “highly potent TRIM8 inhibitor”. Besides, in the assay with THP-1 cells, the “Average Normalized Cell Count” value amounted to 0.837.

For `COc1ccc(CN2C(=O)NC(=O)/C(=C\c3cccc4ccccc34)C2=O)cc1` [Compound 17, (5E)-1-[(4-methoxyphenyl)methyl]-5-[(naphthalen-1-yl)methylidene]-1,3-diazinane-2,4,6-trione], on TRIM8, the “Normalized Average of IP-10/CXCL10” value is recorded as 3.640; the “Normalized Average of MIG/CXCL9” value was 2.545; the “Normalized Average of I-TAC/CXCL11” value stood at 4.410; the “Effect on inflammatory response” value is reported as “significant enhancement of inflammatory response”. Besides, on TRIM8, the “TRIM8 inhibitor or enhancer activity found on testing” value is “potent TRIM8 enhancer”. Further, the “Average Normalized Cell Count” value with THP-1 cells came to 1.435.

Consider `O=C(NCCCc1ccccc1)c1n[nH]c2c1CN(C(=O)c1cc(F)ccc1F)CC2` [Compound 120, 5-(2,5-difluorobenzoyl)-N-(3-phenylpropyl)-1H,4H,5H,6H,7H-pyrazolo[4,3-c]pyridine-3-carboxamide], for which, at TRIM8, the “Normalized Average of IP-10/CXCL10” value came out at 0.468; the “Normalized Average of MIG/CXCL9” value amounted to 0.188; the “Normalized Average of I-TAC/CXCL11” value was 0.426; the “Effect on inflammatory response” value was “significant inhibition of inflammatory response”. Also, the “TRIM8 inhibitor or enhancer activity found on testing” value at TRIM8 is “TRIM8 inhibitor”. Also, the “Average Normalized Cell Count” value in the assay with THP-1 cells is listed as 0.960.

Regarding `COc1ccc(-c2n[nH]c3c2C(c2ccccc2)C2=C(CC(C)(C)CC2=O)N3)cc1` (stereo not drawn) [Compound 76, 3-(4-methoxyphenyl)-7,7-dimethyl-4-phenyl-1H,4H,5H,6H,7H,8H,9H-pyrazolo[3,4-b]quinolin-5-one], on TRIM8, the “Normalized Average of IP-10/CXCL10” value was 0.352; the “Normalized Average of MIG/CXCL9” value came to 0.085; the “Normalized Average of I-TAC/CXCL11” value is “<LLOD”; the “Effect on inflammatory response” value was “significant inhibition of inflammatory response”. Besides, the “TRIM8 inhibitor or enhancer activity found on testing” value at TRIM8 was “powerful TRIM8 inhibitor”. For the same compound, in the assay on THP-1 cells, the “Average Normalized Cell Count” value is on record as 1.196.
